16 compounds from PubChem BioAssay AID220 (DTP/NCI, 2004) can be followed below.

The test system of the test is CD8F1 mice, subcutaneous mammary adenocarcinoma, T/C%. In words: NCI In Vivo Anticancer Drug Screen. Data for tumor model Mammary Adenocarcinoma CD8F1 (subcutaneous) in CD8F1. Conditions: higher = larger tumour. Put shortly: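 Tumor-bearing mice, transplantable model; readout survival or tumor size; value = treated (T) / vehicle control (C).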
Setting [1] is: endpoint: median tumor weight (est.), dose: 25.0 mg/kg/injection, schedule: Q07DX005 (ip), vehicle: saline.
[2] abbreviates: endpoint: median tumor weight change, dose: 250.0 mg/kg/injection, schedule: Q01DX001 (ip), vehicle: Klucel (hydroxypropylcellulose) (HPC).
Where [3] appears, read: endpoint: median tumor weight change, dose: 500.0 mg/kg/injection, schedule: Q01DX001 (ip), vehicle: Klucel (hydroxypropylcellulose) (HPC).
Where [4] appears, read: endpoint: median tumor weight change, dose: 1000.0 mg/kg/injection, schedule: Q01DX001 (ip), vehicle: Klucel (hydroxypropylcellulose) (HPC).
The mark [5] stands for this setting: endpoint: median tumor weight change, dose: 2000.0 mg/kg/injection, schedule: Q01DX001 (ip), vehicle: Klucel (hydroxypropylcellulose) (HPC).
[6] abbreviates: endpoint: median tumor weight change, dose: 125.0 mg/kg/injection, schedule: Q01DX001 (ip), vehicle: saline with Tween-80.
The mark [7] stands for this setting: endpoint: median tumor weight change, dose: 250.0 mg/kg/injection, schedule: Q01DX001 (ip), vehicle: saline with Tween-80.
Where [8] appears, read: endpoint: median tumor weight change, dose: 500.0 mg/kg/injection, schedule: Q01DX001 (ip), vehicle: saline with Tween-80.
Where [9] appears, read: endpoint: median tumor weight (est.), dose: 25.0 mg/kg/injection, schedule: Q07DX005 (ip), vehicle: saline with Tween-80.
[10] abbreviates: endpoint: median tumor weight (est.), dose: 50.0 mg/kg/injection, schedule: Q07DX005 (ip), vehicle: saline with Tween-80.
[11] abbreviates: endpoint: median tumor weight (est.), dose: 100.0 mg/kg/injection, schedule: Q07DX005 (ip), vehicle: saline with Tween-80.
Where [12] appears, read: endpoint: median tumor weight (est.), dose: 200.0 mg/kg/injection, schedule: Q07DX005 (ip), vehicle: saline with Tween-80.
Setting [13] is: endpoint: median tumor weight (est.), dose: 400.0 mg/kg/injection, schedule: Q07DX005 (ip), vehicle: saline with Tween-80.
[14] abbreviates: endpoint: median tumor weight change, dose: 62.5 mg/kg/injection, schedule: Q01DX001 (ip), vehicle: saline.
The mark [15] stands for this setting: endpoint: median tumor weight change, dose: 125.0 mg/kg/injection, schedule: Q01DX001 (ip), vehicle: saline.
[16] abbreviates: endpoint: median tumor weight (est.), dose: 12.5 mg/kg/injection, schedule: Q07DX005 (ip), vehicle: saline with Tween-80.

The structures appear in SMILES notation. Several values for one entry are separate records, joined by “and”; a condition that tells them apart may be missing. Equal values may be shown once. Results filed as inconclusive are left out.

With `C1OC1CN1CCN(CC2CO2)CC1` (centres undefined), the T/C is 72 % of control and 80 % of control (endpoint: median tumor weight (est.), dose: 3.12 mg/kg/injection, schedule: Q07DX005 (ip), vehicle: saline); 24 % of control and 38 % of control (endpoint: median tumor weight (est.), dose: 12.5 mg/kg/injection, schedule: Q07DX005 (ip), vehicle: saline); 24 % of control and 28 % of control under setting [1]; 1 % of control and 4 % of control (endpoint: median tumor weight (est.), dose: 50.0 mg/kg/injection, schedule: Q07DX005 (ip), vehicle: saline).
As for `COc1cc(C)c(C2NC(=O)c3ccccc3N2)cc1C` (centres undefined), the T/C reads like this: (endpoint: median tumor weight change, dose: 125.0 mg/kg/injection, schedule: Q01DX001 (ip), vehicle: Klucel (hydroxypropylcellulose) (HPC)) 69 % of control; under setting [2], 76 % of control; under setting [3], 91 % of control; under setting [4], 107 % of control; under setting [5], 84 % of control.
For `CC1(C)CC2(C)OC2C2(C1)N=NC(=Nc1ccccc1)O2` (centres undefined), the T/C under setting [6] is 78 % of control, the T/C under setting [7] was 64 % of control and the T/C under setting [8] is 41 % of control.
Take `S=C(Nc1ccc(Cl)c(Cl)c1)N1c2ccccc2-n2cccc2C1c1cccnc1` (centres undefined): the T/C is 48 % of control and 67 % of control under setting [2]; 49 % of control and 57 % of control under setting [3]; 50 % of control and 70 % of control under setting [4]; -11 % of control under setting [5].
Turning to `CO[C@H](/C(C)=C/C=C/C(C)=C/c1coc(C)n1)[C@H](C)[C@H]1C[C@@H](O)[C@@]2(C)O[C@H]2/C=C/[C@@H](C)[C@@H]2C[C@@H](CC(=O)O2)C[C@H]2O[C@@H]2C(=O)O1`, the T/C reads like this: (endpoint: median tumor weight change, dose: 0.06 mg/kg/injection, schedule: Q01DX001 (ip), vehicle: Klucel (hydroxypropylcellulose) (HPC)) 175 % of control; (endpoint: median tumor weight change, dose: 0.25 mg/kg/injection, schedule: Q01DX001 (ip), vehicle: Klucel (hydroxypropylcellulose) (HPC)) 83 % of control; (endpoint: median tumor weight change, dose: 0.5 mg/kg/injection, schedule: Q01DX001 (ip), vehicle: Klucel (hydroxypropylcellulose) (HPC)) 110 % of control; (endpoint: median tumor weight change, dose: 1.0 mg/kg/injection, schedule: Q01DX001 (ip), vehicle: Klucel (hydroxypropylcellulose) (HPC)) 101 % of control.
In the case of `COc1cccc2c1C(=O)c1c(O)c3c(c(O)c1C2=O)C[C@@](O)(C(C)=O)C[C@@H]3OC1CC(N)C(O)C(C)O1` (some centres undefined), the T/C (endpoint: median tumor weight (est.), dose: 0.5 mg/kg/injection, schedule: Q07DX005 (ip), vehicle: water) is 41 % of control; the T/C (endpoint: median tumor weight (est.), dose: 1.0 mg/kg/injection, schedule: Q07DX005 (ip), vehicle: water) is 43 % of control; the T/C (endpoint: median tumor weight (est.), dose: 1.2 mg/kg/injection, schedule: Q07DX005 (ip), vehicle: saline) is 91 % of control; the T/C (endpoint: median tumor weight (est.), dose: 1.78 mg/kg/injection, schedule: Q07DX005 (ip), vehicle: water) is 43 % of control; the T/C (endpoint: median tumor weight (est.), dose: 1.8 mg/kg/injection, schedule: Q07DX005 (ip), vehicle: saline) is 72 % of control; the T/C (endpoint: median tumor weight (est.), dose: 2.0 mg/kg/injection, schedule: Q07DX005 (ip), vehicle: water) is 38 % of control. Also, the T/C reads like this: (endpoint: median tumor weight (est.), dose: 2.67 mg/kg/injection, schedule: Q07DX005 (ip), vehicle: water) 20 % of control; (endpoint: median tumor weight (est.), dose: 2.7 mg/kg/injection, schedule: Q07DX005 (ip), vehicle: saline) 61 % of control.
Consider `COc1ccc2cc1Oc1ccc(cc1)C[C@H]1c3cc(c(OC)cc3CCN1C)Oc1c(OC)c(OC)cc3c1[C@H](C2)N(C)CC3`, for which the T/C under setting [9] was 115 % of control; the T/C under setting [10] is 102 % of control; the T/C under setting [11] is 117 % of control; the T/C under setting [12] was 64 % of control; the T/C under setting [13] was 37 % of control.
In the case of `COc1cc(Cc2nccc3cc(OC)c(OC)cc23)c(C(C)=O)cc1OC`, the T/C was 93 % of control (endpoint: median tumor weight change, dose: 62.0 mg/kg/injection, schedule: Q01DX001 (ip), vehicle: saline); 41 % of control under setting [14]; 54 % of control (endpoint: median tumor weight change, dose: 62.5 mg/kg/injection, schedule: Q01DX001 (ip), vehicle: suspension in saline); 33 % of control and 35 % of control under setting [15]; 57 % of control (endpoint: median tumor weight change, dose: 125.0 mg/kg/injection, schedule: Q01DX001 (ip), vehicle: suspension in saline); -6 % of control (endpoint: median tumor weight change, dose: 250.0 mg/kg/injection, schedule: Q01DX001 (ip), vehicle: saline).
For `COC(C(=O)C(O)C(C)O)C1CC2C=C3C=C(OC4CC(OC5CC(O)C(OC)C(C)O5)C(OC(C)=O)C(C)O4)C(C)C(=O)C3=C(O)C2=C(O)C1OC1CC(OC2CC(OC3CC(C)(O)C(OC(=O)C(C)C)C(C)O3)C(O)C(C)O2)C(O)C(C)O1` (centres undefined), the T/C (endpoint: median tumor weight (est.), dose: 25.0 micrograms/kg/injection, schedule: Q07DX005 (ip), vehicle: saline) is 74 % of control; the T/C (endpoint: median tumor weight (est.), dose: 50.0 micrograms/kg/injection, schedule: Q07DX005 (ip), vehicle: saline) was 78 % of control; the T/C (endpoint: median tumor weight (est.), dose: 100.0 micrograms/kg/injection, schedule: Q07DX005 (ip), vehicle: saline) is 65 % of control; the T/C (endpoint: median tumor weight (est.), dose: 200.0 micrograms/kg/injection, schedule: Q07DX005 (ip), vehicle: saline) is 48 % of control; the T/C (endpoint: median tumor weight (est.), dose: 400.0 micrograms/kg/injection, schedule: Q07DX005 (ip), vehicle: saline) is 73 % of control.
For `Nc1c(C(=O)O)[nH]c(=O)[nH]c1=O`, the T/C under setting [16] is 83 % of control.
In the case of `NCCc1ccc(O)c(O)c1`, the T/C is 39 % of control (endpoint: mean tumor weight, dose: 300.0 mg/kg/injection, schedule: Q07DX005 (ip), vehicle: saline); 87 % of control (endpoint: mean tumor weight, dose: 600.0 mg/kg/injection, schedule: Q07DX005 (ip), vehicle: saline); 62 % of control under setting [1]; 83 % of control (endpoint: median tumor weight (est.), dose: 200.0 mg/kg/injection, schedule: Q07DX005 (ip), vehicle: saline); 74 % of control (endpoint: median tumor weight (est.), dose: 300.0 mg/kg/injection, schedule: Q07DX005 (ip), vehicle: saline).
For `O=[N+]([O-])c1ccc(N2CCOCC2)c2c1no[n+]2[O-]`, the T/C (endpoint: median tumor weight change, dose: 62.5 mg/kg/injection, schedule: Q01DX001 (ip), vehicle: saline with Tween-80) was 100 % of control; the T/C under setting [6] is 114 % of control; the T/C under setting [7] is 43 % of control; the T/C under setting [8] is 56 % of control.
`Oc1ccc(CCl)c2cccnc12`: the T/C is 54 % of control under setting [14] and 78 % of control under setting [15].
For `CN(C)c1ccc(C(=C2C=CC(=[N+](C)C)C=C2)c2ccc(N(C)C)cc2)cc1` (tested in a mixture with another compound), the T/C is 75 % of control (endpoint: median tumor weight change, dose: 2.5 mg/kg/injection, schedule: Q01DX001 (ip), vehicle: saline with Tween-80) and 77 % of control (endpoint: median tumor weight change, dose: 5.0 mg/kg/injection, schedule: Q01DX001 (ip), vehicle: saline with Tween-80).
Regarding `O=C[C@@H](CO)O[C@H](C=O)n1cnc2c(=O)[nH]cnc21`, the T/C is 119 % of control (endpoint: mean tumor weight, dose: 12.5 mg/kg/injection, schedule: Q07DX004 (ip), vehicle: saline with Tween-80); 98 % of control (endpoint: mean tumor weight, dose: 25.0 mg/kg/injection, schedule: Q07DX004 (ip), vehicle: saline with Tween-80); 76 % of control (endpoint: mean tumor weight, dose: 50.0 mg/kg/injection, schedule: Q07DX004 (ip), vehicle: saline with Tween-80); 78 % of control (endpoint: mean tumor weight, dose: 100.0 mg/kg/injection, schedule: Q07DX004 (ip), vehicle: saline with Tween-80); 100 % of control (endpoint: mean tumor weight, dose: 200.0 mg/kg/injection, schedule: Q07DX004 (ip), vehicle: saline with Tween-80); 67 % of control (endpoint: mean tumor weight, dose: 400.0 mg/kg/injection, schedule: Q07DX004 (ip), vehicle: saline with Tween-80). Besides, the T/C runs as follows: under setting [16], 95 % of control; under setting [9], 116 % of control; under setting [10], 118 % of control; under setting [11], 113 % of control; under setting [12], 84 % of control; under setting [13], 82 % of control.
Take `Clc1ccc(C(c2ccccc2Cl)C(Cl)Cl)cc1` (centres undefined): the T/C is 124 % of control (endpoint: median tumor weight (est.), dose: 12.5 mg/kg/injection, schedule: Q07DX005 (ip), vehicle: Klucel (hydroxypropylcellulose) (HPC)); 118 % of control (endpoint: median tumor weight (est.), dose: 25.0 mg/kg/injection, schedule: Q07DX005 (ip), vehicle: Klucel (hydroxypropylcellulose) (HPC)); 175 % of control (endpoint: median tumor weight (est.), dose: 50.0 mg/kg/injection, schedule: Q07DX005 (ip), vehicle: Klucel (hydroxypropylcellulose) (HPC)); 92 % of control (endpoint: median tumor weight (est.), dose: 100.0 mg/kg/injection, schedule: Q07DX005 (ip), vehicle: Klucel (hydroxypropylcellulose) (HPC)).
